# Results as given in the supplement of paper PMC8671470.
# Tested on: SHI-1
# Assay: cell viability (% survival relative to DMSO control, bortezomib = 0%); higher = less cytotoxic
# Conditions: 10 nM; 72 h
# Outline: (§1)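 After 72 h at 37 °C with 5% CO2, cell viability in 384-well plates was measured by CellTiter-Glo luminescence. The plates held compounds pre-printed at 1, 10, 100, 1000 or 10000 nM in duplicate, and cells from 10 AML and 5 CML lines seeded at densities titrated to linear growth. Percent survival is the duplicate mean, normalised to vehicle as 100% and a 10 µM positive control as 0%.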
row,SMILES,cell viability
1,COc1ccc2c(c1)c(CC(=O)O)c(C)n2C(=O)c1ccc(Cl)cc1 [Indomethacine],95.3%
2,Cn1cc(C[C@@H](N)C(=O)O)c2ccccc21 [Indoximod],101%

# Same assay, conditions: 100 nM; 72 h
row,SMILES,cell viability
1,OC[C@H]1N[C@@H](c2c[nH]c3c(O)ncnc23)[C@H](O)[C@@H]1O [Forodesine],94.3%
2,O=c1oc2c(cc1O)oc(=O)c1cc(O)c(O)c(O)c12 [Galloflavin],106%
3,Nc1ccn([C@@H]2O[C@H](CO)[C@@H](O)C2(F)F)c(=O)n1 [Gemcitabine],34.1%
4,N[C@@H](CCC(=O)N[C@@H](CS)C(=O)NCC(=O)O)C(=O)O [Glutathione],106%
5,Clc1cc(Cl)c(OCC#CI)cc1Cl [Haloprogin],107%
6,O=c1[nH]c(=O)n([C@H]2C[C@H](O)[C@@H](CO)O2)cc1I [Idoxuridine],99.3%
7,CC1Cc2ccccc2N1NC(=O)c1ccc(Cl)c(S(N)(=O)=O)c1 (centres undefined) [Indapamide],113%
8,NS(=O)(=O)c1ccc(S(=O)(=O)Nc2cccc3c(Cl)c[nH]c23)cc1 [Indisulam],97.4%
9,COc1ccc2c(c1)c(CC(=O)O)c(C)n2C(=O)c1ccc(Cl)cc1 [Indomethacine],99%
10,Cn1cc(C[C@@H](N)C(=O)O)c2ccccc21 [Indoximod],102%

# Same assay, conditions: 1000 nM; 72 h
row,SMILES,cell viability
1,OC[C@H]1N[C@@H](c2c[nH]c3c(O)ncnc23)[C@H](O)[C@@H]1O [Forodesine],108%
2,O=c1oc2c(cc1O)oc(=O)c1cc(O)c(O)c(O)c12 [Galloflavin],112%
3,Nc1ccn([C@@H]2O[C@H](CO)[C@@H](O)C2(F)F)c(=O)n1 [Gemcitabine],0.0306%
4,N[C@@H](CCC(=O)N[C@@H](CS)C(=O)NCC(=O)O)C(=O)O [Glutathione],97.5%
5,Clc1cc(Cl)c(OCC#CI)cc1Cl [Haloprogin],99.5%
6,O=c1[nH]c(=O)n([C@H]2C[C@H](O)[C@@H](CO)O2)cc1I [Idoxuridine],95.2%
7,CC1Cc2ccccc2N1NC(=O)c1ccc(Cl)c(S(N)(=O)=O)c1 (centres undefined) [Indapamide],102%
8,NS(=O)(=O)c1ccc(S(=O)(=O)Nc2cccc3c(Cl)c[nH]c23)cc1 [Indisulam],65.2%
9,COc1ccc2c(c1)c(CC(=O)O)c(C)n2C(=O)c1ccc(Cl)cc1 [Indomethacine],94.2%
10,Cn1cc(C[C@@H](N)C(=O)O)c2ccccc21 [Indoximod],107%

# Same assay, conditions: 10000 nM; 72 h
row,SMILES,cell viability
1,OC[C@H]1N[C@@H](c2c[nH]c3c(O)ncnc23)[C@H](O)[C@@H]1O [Forodesine],98.9%
2,O=c1oc2c(cc1O)oc(=O)c1cc(O)c(O)c(O)c12 [Galloflavin],104%
3,Nc1ccn([C@@H]2O[C@H](CO)[C@@H](O)C2(F)F)c(=O)n1 [Gemcitabine],-0.276%
4,N[C@@H](CCC(=O)N[C@@H](CS)C(=O)NCC(=O)O)C(=O)O [Glutathione],95.3%
5,Clc1cc(Cl)c(OCC#CI)cc1Cl [Haloprogin],62.6%
6,O=c1[nH]c(=O)n([C@H]2C[C@H](O)[C@@H](CO)O2)cc1I [Idoxuridine],60.3%
7,CC1Cc2ccccc2N1NC(=O)c1ccc(Cl)c(S(N)(=O)=O)c1 (centres undefined) [Indapamide],98%
8,NS(=O)(=O)c1ccc(S(=O)(=O)Nc2cccc3c(Cl)c[nH]c23)cc1 [Indisulam],26.8%
9,COc1ccc2c(c1)c(CC(=O)O)c(C)n2C(=O)c1ccc(Cl)cc1 [Indomethacine],94.3%
10,Cn1cc(C[C@@H](N)C(=O)O)c2ccccc21 [Indoximod],104%

# Tested on: THP-1
# Assay: as above
# Conditions: 1 nM; 72 h
# Outline: as §1
row,SMILES,cell viability
1,OC[C@H]1N[C@@H](c2c[nH]c3c(O)ncnc23)[C@H](O)[C@@H]1O [Forodesine],100%
2,O=c1oc2c(cc1O)oc(=O)c1cc(O)c(O)c(O)c12 [Galloflavin],98%
3,Nc1ccn([C@@H]2O[C@H](CO)[C@@H](O)C2(F)F)c(=O)n1 [Gemcitabine],110%
4,N[C@@H](CCC(=O)N[C@@H](CS)C(=O)NCC(=O)O)C(=O)O [Glutathione],100%
5,Clc1cc(Cl)c(OCC#CI)cc1Cl [Haloprogin],101%
6,O=c1[nH]c(=O)n([C@H]2C[C@H](O)[C@@H](CO)O2)cc1I [Idoxuridine],95.4%
7,CC1Cc2ccccc2N1NC(=O)c1ccc(Cl)c(S(N)(=O)=O)c1 (centres undefined) [Indapamide],93.5%
8,NS(=O)(=O)c1ccc(S(=O)(=O)Nc2cccc3c(Cl)c[nH]c23)cc1 [Indisulam],103%
9,COc1ccc2c(c1)c(CC(=O)O)c(C)n2C(=O)c1ccc(Cl)cc1 [Indomethacine],100%
10,Cn1cc(C[C@@H](N)C(=O)O)c2ccccc21 [Indoximod],99.3%

# Same assay, conditions: 10 nM; 72 h
row,SMILES,cell viability
1,OC[C@H]1N[C@@H](c2c[nH]c3c(O)ncnc23)[C@H](O)[C@@H]1O [Forodesine],93.9%
2,O=c1oc2c(cc1O)oc(=O)c1cc(O)c(O)c(O)c12 [Galloflavin],99.3%
3,Nc1ccn([C@@H]2O[C@H](CO)[C@@H](O)C2(F)F)c(=O)n1 [Gemcitabine],44.4%
4,N[C@@H](CCC(=O)N[C@@H](CS)C(=O)NCC(=O)O)C(=O)O [Glutathione],102%
5,Clc1cc(Cl)c(OCC#CI)cc1Cl [Haloprogin],97.4%
6,O=c1[nH]c(=O)n([C@H]2C[C@H](O)[C@@H](CO)O2)cc1I [Idoxuridine],100%
7,CC1Cc2ccccc2N1NC(=O)c1ccc(Cl)c(S(N)(=O)=O)c1 (centres undefined) [Indapamide],105%
8,NS(=O)(=O)c1ccc(S(=O)(=O)Nc2cccc3c(Cl)c[nH]c23)cc1 [Indisulam],94.5%
9,COc1ccc2c(c1)c(CC(=O)O)c(C)n2C(=O)c1ccc(Cl)cc1 [Indomethacine],98.8%
10,Cn1cc(C[C@@H](N)C(=O)O)c2ccccc21 [Indoximod],96.4%

# Same assay, conditions: 100 nM; 72 h
row,SMILES,cell viability
1,OC[C@H]1N[C@@H](c2c[nH]c3c(O)ncnc23)[C@H](O)[C@@H]1O [Forodesine],90.7%
2,O=c1oc2c(cc1O)oc(=O)c1cc(O)c(O)c(O)c12 [Galloflavin],101%
3,Nc1ccn([C@@H]2O[C@H](CO)[C@@H](O)C2(F)F)c(=O)n1 [Gemcitabine],30.5%
4,N[C@@H](CCC(=O)N[C@@H](CS)C(=O)NCC(=O)O)C(=O)O [Glutathione],95.4%
5,Clc1cc(Cl)c(OCC#CI)cc1Cl [Haloprogin],100%
6,O=c1[nH]c(=O)n([C@H]2C[C@H](O)[C@@H](CO)O2)cc1I [Idoxuridine],99.6%
7,CC1Cc2ccccc2N1NC(=O)c1ccc(Cl)c(S(N)(=O)=O)c1 (centres undefined) [Indapamide],93.2%
